# Test results: US20100016382A1, “PHARMACEUTICAL COMPOSITION” (TAKEDA PHARMACEUTICAL COMPANY LIMITED, priority 2006, published 2010)
# Assay: physchem
# Type: physicochemical
# Settings: 20 °C, water
# Method: Compound A is 2-ethoxy-1-{[2′-(5-oxo-4,5-dihydro-1,2,4-oxadiazol-3-yl)biphenyl-4-yl]methyl}-1H-benzimidazole-7-carboxylic acid (melting point: 191° C., solubility in water at 20° C. of about 0.006 g/L). In the following Examples and Reference Examples, the Japanese Pharmacopoeia 14th Edition or Japanese Pharmaceutical Excipients 2003 compatible products were used as the preparation additives. Of the preparation additives, while magnesium stearate is also the Japanese Pharmacopoeia 14th Edition compatible product, like other preparation additives, it particularly has a stearic acid content ratio of not less than about 90% (Taihei Chemical Industrial Co., Ltd.).
smiles,measurement,value
"CCOc1nc2cccc(C(=O)O)c2n1Cc1ccc(-c2ccccc2-c2noc(=O)[nH]2)cc1 [Compound A, 2-ethoxy-1-{[2′-(5-oxo-4,5-dihydro-1,2,4-oxadiazol-3-yl)biphenyl-4-yl]methyl}-1H-benzimidazole-7-carboxylic acid]",solubility,~6 µg/mL
